These results are taken from patent US7094869B2, “Low molecular weight peptidomimetic growth hormone secretagogues” (Genentech, Inc., priority 1994, dated 2006).

Entries after “also recorded” stand apart in the source; their conditions may differ. Read-outs that look alike come from different tables or passages of the source.

The nature of data set [1]: Combination GHRP and IGF-1 treatment of obese Zucker Diabetic Fatty (ZDF) rats. The format is in vivo, rat. On the procedure: Ten lean ZDF rats served as an additional control group.
This GHRP was given by sc. injection twice daily, each dose of 100 μl therefore containing 50 μg/injection or 100 μg/day.
Recombinant human IGF-1 (rhIGF-1) at 13.8 mg/ml in acetate buffer was loaded into osmotic minipumps (Alza, Palo Alto, model 2ML4, pump rate 2.29 μl/hr for 28 days, fill volume 2064 μl). Other pumps were filled with acetate buffer. […] The delivered dose of rhIGF-1 was therefore 758 μg/day. Recombinant human growth hormone (rhGH, Lot R9092AX, Genentech Inc.) was diluted in sterile water to 2.5 g/l and a 100 μl injection given twice daily (250 μg/injection, or 500 μg/day).
The next day the osmotic pumps were inserted into rats. […] All rats not receiving rhIGF-1 containing pumps were implanted with pumps delivering the acetate buffer excipient.
On day 24 blood was withdrawn after a 4 hour fast and 1.5 U/kg of regular insulin was injected i.p. and a second blood sample taken 30 minutes later. The rats were then sacrificed using carbon dioxide, bled from the heart, and organs taken. Serum glucose was measured by standard automated procedures.
Data are presented as mean±standard error (SE) of the mean with 8 rats per group.

A short description of data set [2]: GHRP induced dose dependent weight gain in rats (sc minipump infusion, 14 days). The format is in vivo, rat. As for the experimental part: Rat GHRH (1-43) was dissolved in the same buffer at 25 g/l.
The next day these osmotic pumps were inserted into rats.
Serum chemistries were measured by standard automated procedures.

The target in a further data set is rat pituitary cells (Rattus norvegicus, UniProt O08725). The method, boiled down:
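Primary rat anterior pituitary cells, cultured three days in DME low glucose/10% FBS, were washed, pre-incubated twice for 15 min, then challenged 15 min with test compounds (DMSO ≤0.1%) at 37 °C. Released GH was measured by two-site ELISA; EC50 came from 4-parameter fits, mean of three to four independent determinations.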

The mark [3] stands for this setting: high dose (inip) b b F K-NH2 100 μg/day, GHRH 600 μg/day, 14 d infusion.

Sequence of rat pituitary cells (O08725 whole entry): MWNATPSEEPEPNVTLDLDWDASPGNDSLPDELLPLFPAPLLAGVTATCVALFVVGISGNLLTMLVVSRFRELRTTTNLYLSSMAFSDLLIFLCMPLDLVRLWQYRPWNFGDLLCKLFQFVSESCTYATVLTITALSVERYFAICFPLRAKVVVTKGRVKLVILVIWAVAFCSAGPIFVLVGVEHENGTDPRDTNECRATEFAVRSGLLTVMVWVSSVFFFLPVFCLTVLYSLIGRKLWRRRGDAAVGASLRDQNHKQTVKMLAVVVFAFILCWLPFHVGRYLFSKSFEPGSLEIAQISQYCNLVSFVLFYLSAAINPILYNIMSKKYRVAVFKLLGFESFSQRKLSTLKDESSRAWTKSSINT

With `NCCCC[C@H](NC(=O)[C@H](Cc1ccccc1)NC(=O)[C@@H](Cc1ccc2ccccc2c1)NC(=O)[C@@H](Cc1ccc2ccccc2c1)NC(=O)C1CCNCC1)C(N)=O` [(inip) b b F K amide, (inip)-DβNal-DβNal-Phe-Lys-amide], in data set [1] (Day 2, obese ZDF male rats, GHRP 100 μg/d sc injection, rhIGF-1 758 μg/d pump, rhGH 500 μg/d), the body weight gain is 18.3 ± 1.0 g. In addition, in data set [1] (rat, in vivo), the “effect on insulin sensitivity (diabetogenic effect)” value is “greatly reduced effect on insulin sensitivity (diabetogenic effect) than rhGH”, the fasting blood glucose was 386±63 mg % and the serum insulin is 39 ± 6 ng/mL. In data set [2] (14 d infusion), the epiphyseal plate width entry is “no statistically significant increase”; the “pituitary and kidney weight” value was “not affected”. In addition, the “heart weight compared to excipient” value in data set [2] (high dose 100 μg/day, GHRH 600 μg/day) is “tended to be increased”. The liver weight in data set [2] (high dose (100 μg/day), 14 d infusion) was determined as 10.14 ± 0.29 g. Also, in data set [2] (setting [3]), the spleen weight was 628 ± 26 mg and the thymus weight was 584 ± 34 mg. In addition, the liver weight in data set [2] (low dose (4 μg/day), 14 d infusion) was 9.40 ± 0.37 g. The compound further had a liver weight in data set [2] (medium dose (20 μg/day), 14 d infusion) of 9.70 ± 0.29 g. Further, the “body weight gain compared to excipient” value in data set [2] (sc minipump 14 days, (inip) b b F K-NH2 4, 20, 100 μg/d, GHRH 600 μg/d, 90 day old female rats) was “dose-related weight gain; also recorded: significant body weight and organ weight gain”. At rat pituitary cells (15 min exposure), the “concentration at which GH release is significantly (P<0.05) increased” value worked out at 0.3 nM and the “concentration by which GH release reaches a plateau” value was 1 nM. For the same compound, the “fold more potent than GHRP-6” value at rat pituitary cells (ratio of pit cell EC50s) is “over 30 fold”. Moreover, the EC50 on rat pituitary cells (read-out: EC50 of the representative GH dose response, single representative experiment, 15 min exposure) amounted to 0.16 nM. In addition, the EC50 on rat pituitary cells (read-out: mean EC50, mean ± SE of independent EC50s) is 0.18 ± 0.04 nM.
